What was measured:
mGluRTγa = target: T1, mGluRTγa (Rattus norvegicus, UniProt P23385); experiment: Two-electrode membrane potential fixation measurement of calcium-dependent chloride current in Xenopus oocytes expressing mGluRTγa; format: cell-based; settings: potential fixed at -70 mV
T1 construct: expressed in transfected cells; host or cells: Xenopus oocytes injected with cRNA transcribed from pCRII-TOPO/mGluRTγ
Experimental: (§1) Oocyte-expressing strain of Xenopus was used for analysis of function of mGluR1 mRNA derived from circumvallate papilla of rats.
(§2) Female Xenopus (purchased from Watanabe Zoshoku) was bred in a fish tank until oocytes were isolated. The Xenopus was anesthetized with tricain methanesulfonate (MS 222, Sigma) dissolved in deionized water in a concentration of 1 g/L followed by buffering with NaHCO3 (500 mg/L). Anatomy was conducted by hand and oocytes in stages V and VI were recovered from ovary and incubated (for 30 minutes to 1 hour) in a 0.2% collagenase S-1 (Nitta Gelatin) until dissociation took place. After treating with collagenase, the oocytes were washed; follicles were removed; selection was conducted under a microscope; and incubation was carried out at 18° C. for one night.
(§3) Since the polymerase remains […] in PCR fragments, PCR-amplified mGluRTβa and mGluRTγa template DNA were inserted into pCRII-TOPO vector (Invitrogen) by a TOPO-TA cloning reaction. pCRII-TOPO/mGluRTγ vector and pCRII-TOPO/mGluRTβ vector were made into straight lines using EcoRV and XbaI, respectively, extracted with a mixture of phenol and chloroform and precipitated with ethanol together with sodium acetate. After a sequence analysis, cRNA was prepared using a transcription kit for Sp6 promoter made by Ambion (mMESSAGE mMACHINE kit) binding to pCRII-TOPO promoter.

vagal gastric branch = experiment: Vagal gastric branch afferent nerve activity recording after administration to stomach; format: in vivo, rat; settings: 150 mM administered to stomach; urethane-anesthetized fasted Wistar rats; FIG. 4
Experimental: Rats (Wistar strain, males, 8 to 10 weeks age; Nippon Charles Liver) were fasted for 18 hours, laparotomy was conducted under anesthetization with urethane (1 g/kg; i.p.) and vagal gastric branch was exfoliated to an extent of about 5 mm. After vagal bundle was cut, it was placed on a small operation stand (8×6 mm), fat and bonded tissues around that were carefully detached and the terminal fiber at the side of organ was placed on a dipole electrode made of platinum for recording and insulated from the surrounding tissues by a mixture of liquid paraffin-vaseline (1:1). […]
Nerve action potential was amplified to an extent of 10,000-fold by a micropotential amplifier (DAM-80 manufactured by WPI); and after noise was reduced by a Vessel filter (4-pole, High Cut 10 Hz, Low Cut 1 KHz), it was subjected to an A/D conversion (Powerlab 4sp, manufactured by ADI Instruments, Inc.) and incorporated into a computer (sampling rate 3 KHz, iBook). At the same time, an amplified signal was separated by a window discriminator (DSE-435 manufactured by Daiya Medical Co., Ltd.) into a noise component and a nerve signal component together with monitoring by an oscilloscope, integrated for 5 seconds by a spike counter (DSE-335P manufactured by Daiya Medical Co., Ltd.) and recorded in a chart recorder (WT-465G manufactured by Nippon Koden Corporation). […]

[1] = tested on: oocytes into which cRNA was not injected; experiment: Two-electrode membrane potential fixation measurement of membrane current in oocytes not injected with cRNA; format: cell-based, Xenopus; settings: data not shown
Experimental: as §2

mGluRTβa = target: T2, mGluRTβa (Rattus norvegicus, UniProt P23385); experiment: Two-electrode membrane potential fixation measurement of calcium-dependent chloride current in Xenopus oocytes expressing mGluRTβa; format: cell-based; settings: medium containing 50 mM, potential fixed at -70 mV, current disappeared on substituting the medium again, FIG. 6
T2 construct: expressed in transfected cells; host or cells: Xenopus oocytes injected with cRNA transcribed from pCRII-TOPO/mGluRTβ
T2 sequence (P23385 410-1199): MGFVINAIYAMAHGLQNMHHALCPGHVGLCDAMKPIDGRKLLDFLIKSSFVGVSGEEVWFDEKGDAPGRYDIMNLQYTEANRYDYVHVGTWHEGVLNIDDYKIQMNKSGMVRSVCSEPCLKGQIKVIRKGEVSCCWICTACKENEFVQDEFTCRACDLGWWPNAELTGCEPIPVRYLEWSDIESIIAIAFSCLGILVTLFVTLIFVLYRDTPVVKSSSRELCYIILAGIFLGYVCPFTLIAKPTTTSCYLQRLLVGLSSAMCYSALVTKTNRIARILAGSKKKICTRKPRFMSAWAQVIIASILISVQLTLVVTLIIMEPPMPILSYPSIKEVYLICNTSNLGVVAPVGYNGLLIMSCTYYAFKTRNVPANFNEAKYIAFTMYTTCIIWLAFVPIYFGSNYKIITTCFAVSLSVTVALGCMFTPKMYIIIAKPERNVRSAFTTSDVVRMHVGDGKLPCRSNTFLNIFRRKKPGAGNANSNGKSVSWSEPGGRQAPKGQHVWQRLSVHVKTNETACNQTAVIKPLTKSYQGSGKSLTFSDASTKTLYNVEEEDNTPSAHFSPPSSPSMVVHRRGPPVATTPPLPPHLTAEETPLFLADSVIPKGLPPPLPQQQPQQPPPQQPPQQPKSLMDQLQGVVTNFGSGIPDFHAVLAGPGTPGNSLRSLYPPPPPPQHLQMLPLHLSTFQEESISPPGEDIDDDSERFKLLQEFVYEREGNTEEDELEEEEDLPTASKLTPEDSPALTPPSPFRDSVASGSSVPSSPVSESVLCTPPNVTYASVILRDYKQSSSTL
Experimental: as §1, §2, §3

T1 sequence (P23385 410-1199): as above

N[C@@H](CCC(=O)[O-])C(=O)[O-].[Na+].[Na+] [MSG, sodium L-glutamate]
Membrane current (calcium-dependent chloride current) (mGluRTγa): same introvert current was also observed
Centripetal activity of vagal gastric branch (vagal gastric branch): accelerated
Membrane current (calcium-dependent chloride current) [1]: not observed
Membrane current (calcium-dependent chloride current) (mGluRTβa): continuous introvert current was induced

Reference: patent US7186819B2, “Glutamate receptor and utilization thereof” (Ajinomoto Co., Inc., priority 2002, dated 2007)
